According to US8932826B2, “Method for simultaneously determining multiple coagulation proteases” (Siemens Healthcare Diagnostics Products GmbH, priority 2010, dated 2015):

What was measured:
bovine thrombin = bovine thrombin (Bos taurus, UniProt P00735); assay: Simultaneous chromogenic determination of thrombin inhibition in enriched normal plasma (Tos-Gly-Pro-Arg-Basic Blue 49, 575 nm); assay type: biochemical
Protocol: (§1) The following components were mixed to form one reaction: • 10 μl sample • 10 μl pool of normal human plasma • 40 μl substrate reagent (4 mM Z-D-Leu-Gly-Arg-ANBA-methylamide, 0.8 mM Tos-Gly-Pro-Arg-Basic Blue 49 in mannitol buffer, pH 4.0) • 100 μl factor Xa reagent (0.75 U/ml human factor Xa in 4.5 g/l TRIS, 9 g/l NaCl, 0.56 g/l EDTA, pH 8.0) • 100 μl thrombin reagent (5 U/ml bovine thrombin in 1.2 g/l TRIS, pH 8.2)
(§2) The sample used was normal human plasma. Factor Xa cleaves ANBA from the factor Xa-specific peptide substrate Z-D-Leu-Gly-Arg-ANBA-methylamide, increasing over time the optical density in the reaction at a wavelength of 405 nm. At the same time, thrombin cleaves Basic Blue 49 from the thrombin-specific peptide substrate Tos-Gly-Pro-Arg-Basic Blue 49, increasing over time the optical density in the reaction at a wavelength of 575 nm.
(§3) The measurements of the optical densities of the reaction at 405 nm and 575 nm and the evaluation of the reaction kinetics were carried out simultaneously in a fully automated Sysmex® CS-2000i coagulation analyzer. To measure the optical densities, the reaction was irradiated alternately with light of the aforementioned wavelengths, and the absorbance of the light, caused by the coloration of the reaction, was determined as a function of wavelength and time.
Normal plasma was enriched with various concentrations of rivaroxaban, a specific factor Xa inhibitor, and/or of argatroban, a specific thrombin inhibitor, and used as a sample in a method as per example 1.
(§4) The increases in the reaction kinetics for normal plasma without inhibitors were defined as 100% of the respective enzyme activity.

human factor Xa = human factor Xa (Homo sapiens, UniProt P00742); assay: Simultaneous chromogenic determination of factor Xa inhibition in enriched normal plasma (Z-D-Leu-Gly-Arg-ANBA-methylamide, 405 nm); assay type: biochemical
Chain of human factor Xa (P00742 235-488 limits assumed): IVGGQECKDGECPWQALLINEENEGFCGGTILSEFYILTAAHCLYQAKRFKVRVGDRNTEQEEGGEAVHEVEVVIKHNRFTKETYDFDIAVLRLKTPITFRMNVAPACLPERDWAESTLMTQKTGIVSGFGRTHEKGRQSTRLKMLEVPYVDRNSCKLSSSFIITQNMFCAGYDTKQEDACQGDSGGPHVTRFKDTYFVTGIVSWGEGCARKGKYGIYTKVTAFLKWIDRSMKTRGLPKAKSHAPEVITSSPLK
Chain of human factor Xa (P00742 41-179 partner limits assumed): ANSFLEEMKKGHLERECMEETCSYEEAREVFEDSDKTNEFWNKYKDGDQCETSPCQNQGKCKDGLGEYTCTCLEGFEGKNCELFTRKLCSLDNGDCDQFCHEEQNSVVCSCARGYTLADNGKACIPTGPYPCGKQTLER
Protocol: as §1, §2, §3, §4

CC1CNc2c(cccc2S(=O)(=O)N[C@@H](CCCNC(=N)N)C(=O)N2CC[C@@H](C)C[C@@H]2C(=O)O)C1 (stereo partly drawn) [Argatroban, argatroban]
inhibition at 0.375 µg/mL (bovine thrombin; normal plasma enriched with argatroban 375 ng/ml, rivaroxaban 0 ng/ml): 18% | inhibition at 0.75 µg/mL (bovine thrombin; normal plasma enriched with argatroban 750 ng/ml, rivaroxaban 0 ng/ml): 31% | inhibition of thrombin activity, in words (FIG. 2) (bovine thrombin; samples having an increased argatroban concentration, irrespective of the rivaroxaban concentration): increased thrombin inhibition | inhibition at 0.375 µg/mL (human factor Xa; normal plasma enriched with argatroban 375 ng/ml, rivaroxaban 0 ng/ml, read-out: F Xa inhibition [%]): 0% | inhibition at 0.75 µg/mL (human factor Xa; normal plasma enriched with argatroban 750 ng/ml, rivaroxaban 0 ng/ml, read-out: F Xa inhibition [%]): 0%

O=C(NC[C@H]1CN(c2ccc(N3CCOCC3=O)cc2)C(=O)O1)c1ccc(Cl)s1 [Rivaroxaban, rivaroxaban]
inhibition at 0.25 µg/mL (bovine thrombin; normal plasma enriched with rivaroxaban 250 ng/ml, argatroban 0 ng/ml): 5% | inhibition at 0.125 µg/mL (human factor Xa; normal plasma enriched with rivaroxaban 125 ng/ml, argatroban 0 ng/ml, read-out: F Xa inhibition [%]): 42% | inhibition at 0.25 µg/mL (human factor Xa; normal plasma enriched with rivaroxaban 250 ng/ml, argatroban 0 ng/ml, read-out: F Xa inhibition [%]): 65% | inhibition of factor Xa activity, in words (FIG. 1) (human factor Xa; samples having an increased rivaroxaban concentration, irrespective of the argatroban concentration): increased factor Xa inhibition
